{"source": "patent US4610868A", "about": "“Lipid matrix carriers for use in drug delivery systems” (The Liposome Company, Inc., priority 1984, dated 1986)", "key": {"[1]": {"test": "Entrapment of indomethacin or diazepam in LMCs (radiolabeled tracer)", "assay_type": "physicochemical", "method": "Ten mg of indomethacin (Sigma Chemical Co., St. Louis, Missouri) plus 10 μl of the ^14 C-labeled drug as a tracer (New England Nuclear, Boston, Massachusetts, 22 mCi/m mole) were dissolved in 1.5 ml of chloroform. This solution was then combined with 4 ml of corn oil and 150 mg of EPC, and the mixture was slowly extruded through a 21 gauge syringe needle into 20 ml of PBS at 45° C., with stirring. After combining all constituents, the mixture was roto-evaporated at 45° C. to remove the chloroform. One ml of the resulting suspension was then combined with an equal volume of Ficoll-Paque, the mixture was centrifuged at 10,000×g for 10 minutes, and the LMCs, which floated to the top of the gradient, were isolated.\nBy following the procedure described in Section 6.2.1., supra, 5 mg of diazepam (Abbott Laboratories, N. Chicago, Illinois) with a trace of the ^3 H-labeled drug added (New England Nuclear, Boston, Massachusetts, 76.7 Ci/m mole) were incorporated into LMCs."}, "[2]": {"test": "Fluorescence/retention of oxytetracycline in skin after topical administration", "assay_type": "in vivo, Swiss Webster mice", "details": "0.2 ml of 100 mg/ml", "method": "(§1) In the following experiment, two groups of adult male Swiss Webster mice were treated with oxytetracycline as follows: 5 mice per group were depilitated on the back of their necks and 0.2 ml of 100 mg/ml oxytetracycline was topically applied to the depilitated area. The control group received oxytetracycline in PBS whereas the second group received oxytetracycline encapsulated in LMCs prepared as described in Section 6.1.3.\nOn a daily basis the treated area of each mouse was illuminated with ultraviolet light and inspected for fluorescence. Since oxytetracycline is fluorescent, the fluorescence of the treated skin is an indication of the presence of the drug in the skin. Fluorescence could be detected for only 2 days in the control group treated with the aqueous solution of oxytetracycline. […] In contrast, fluorescence could be detected up to 4 days in the group that was treated with oxytetracycline-LMCs."}, "[3]": {"test": "Systemic release (urine) of oxytetracycline after topical administration", "assay_type": "in vivo, Swiss Webster mice", "details": "0.2 ml of 100 mg/ml, 1, 18, 44 and 72 hours", "method": "as §1\nClean catch urine samples were taken at 1, 18, 44, and 72 hours after topical application and aliquots were analyzed for the presence of oxytetracycline using the bioassay previously described in Sections 6.1.2, 7.1, and 7.2."}, "[4]": {"assay_type": "in vivo, Swiss Webster mice", "details": "80 mg/kg IM", "method": "LMCs containing oxytetracycline--HCl (Sigma Chemical Co., St. Louis, Missouri) were prepared as described in Section 6.1.3. supra. The LMCs thus produced contained 20 mg of oxytetracycline per ml of hydrated LMCs, as determined by the bioassay described in Section 6.1.3. Ten 25 g female adult Swiss Webster mice were then injected IM with 80 mg/kg of oxytetracycline in one hind leg, using either LMC-oxytetracycline or the free drug. In both cases, the antibiotic was administered in 0.1 ml of physiological saline.\nAt the times indicated in FIG. 3, samples of clean-catch urine were taken and aliquots were plated onto lawns of S. aureus (ATCC 11632) as described in Section 7.1. Antibiotic levels were quantified by comparison to an oxytetracycline standard curve. […] By 174 hours following injection, urinary levels of oxytetracycline were undetectable."}, "[5]": {"design": "species or system Hartley guinea pigs", "details": "guinea pig, in vivo, ip", "method": "To investigate the drug release characteristics of LMCs in vivo, gentamicin-LMC preparations were injected intraperitoneally (IP) into experimental animals. The final distribution of the drug was then compared with that of similarly injected free gentamicin.\nLMCs were prepared as described in Section 6.1.2., using 6 ml of corn oil, 0.3 ml of PBS, 40 mg of EPC, 100 mg of gentamicin (with a small amount of I-gentamicin added as a tracer) and 40 ml of acetone. The resulting product contained 0.5 mg of gentamicin per mg of dry weight LMCs, as determined by gamma counting.\nTwo groups of 850 g female adult Hartley guinea pigs (Hilltop Farms, Scottsdale, Pennsylvania) were treated as follows: Animals in one group each received 0.3 ml of 100 μg/ml gentamicin in saline (with a small amount of ^125 I-gentamicin added as a tracer), IP. IP injection leads to rapid systemic distribution of the injected material. Animals in the other group received the same quantity of gentamicin entrapped in LMCs. At various times after injection pairs of animals were sacrificed, the hearts, spleens, kidneys and livers were removed, and the quantity of gentamicin in each organ was determined by counting in a crystal gamma counter."}, "[6]": {"test": "Entrapment of ^14C-sucrose/streptomycin in LMCs (liquid scintillation counting)", "assay_type": "physicochemical", "details": "with streptomycin, corn oil/EPC, water-in-oil emulsion", "method": "Streptomycin (Sigma Chemical Co., St. Louis, Missouri) and ^14 C-sucrose (New England Nuclear, Boston, Massachusetts, 31.3 μCi/m mole) were used together as model water soluble compounds for entrapment in conjunction with corn oil and EPC. The ratio of corn oil to EPC used to prepare the emulsion was […] (weight/weight basis). The water-in-oil emulsion was prepared as follows: 6 ml of corn oil, 40 mg of EPC and 0.3 ml of phosphate buffered saline (PBS) containing 10 μl of ^14 C-sucrose and 100 mg of streptomycin were sonicated together for 45 seconds, using a Branson Model E sonicator at 22° C. The resulting water-in-oil emulsion was then extruded slowly through a 21 gauge syringe needle into 40 ml of the saturated acetone solution, with rapid stirring.\nA cloudy suspension of LMCs resulted that was centrifuged at 10,000×gfor 10 minutes at 4° C. The clear supernatant fluid was removed, and the pellet was washed three times with cold saturated acetone, dried under a nitrogen stream, and resuspended in 10 ml of PBS. The hydrated LMCs were then diluted with an equal volume of Ficoll-Paque (Pharmacia Fine Chemicals, Piscataway, New Jersey) and centrifuged at 10,000×g for 10 minutes. […]\nIn FIG. 4, the data are based upon the stability of streptomycin-LMCs in serum. […] At the times indicated, the absorbances of the samples at 400 and 600 nm were determined, and the 400/600 ratios were computed."}}, "note": "Read-outs that look alike come from different tables or passages of the source.", "data": [{"compound": "CN1C(=O)CN=C(c2ccccc2)c2cc(Cl)ccc21", "note": "[diazepam]", "values": [{"measurement": "degree of entrapment", "setting": "[1]", "value": 93, "unit": "%"}]}, {"compound": "CN(C)C1C(=O)C(C(N)=O)=C(O)C2(O)C(=O)C3=C(O)c4c(O)cccc4C(C)(O)C3C(O)C12", "note": "(stereo not drawn) [oxytetracycline]", "values": [{"measurement": "duration of detectable skin fluorescence", "setting": "[2]", "value": 2, "unit": "days"}, {"measurement": "removal from skin by washing", "setting": "[2]", "value": "could easily be washed off"}, {"measurement": "oxytetracycline in urine", "setting": "[3]", "value": "No detectable levels"}, {"measurement": "time within which urinary levels diminished to zero", "setting": "[4]", "value": "≤ 30", "unit": "h"}]}, {"compound": "gentamicin", "values": [{"measurement": "Recovery of Gentamicin, Heart", "setting": "[5]; 15 min", "value": "0.17 % of Total Administered"}, {"measurement": "Recovery of Gentamicin, Kidney", "setting": "[5]; 15 min", "value": "2.53 % of Total Administered"}, {"measurement": "Recovery of Gentamicin, Liver", "setting": "[5]; 15 min", "value": "2.60 % of Total Administered"}, {"measurement": "Recovery of Gentamicin, Spleen", "setting": "[5]; 15 min", "value": "0.09 % of Total Administered"}, {"measurement": "Recovery of Gentamicin, Heart", "setting": "[5]; 30 min", "value": "1.23 % of Total Administered"}, {"measurement": "Recovery of Gentamicin, Kidney", "setting": "[5]; 30 min", "value": "4.32 % of Total Administered"}, {"measurement": "Recovery of Gentamicin, Liver", "setting": "[5]; 30 min", "value": "3.14 % of Total Administered"}, {"measurement": "Recovery of Gentamicin, Spleen", "setting": "[5]; 30 min", "value": "0.08 % of Total Administered"}, {"measurement": "Recovery of Gentamicin, Heart", "setting": "[5]; 60 min", "value": "0.15 % of Total Administered"}, {"measurement": "Recovery of Gentamicin, Kidney", "setting": "[5]; 60 min", "value": "7.04 % of Total Administered"}, {"measurement": "Recovery of Gentamicin, Liver", "setting": "[5]; 60 min", "value": "2.28 % of Total Administered"}, {"measurement": "Recovery of Gentamicin, Spleen", "setting": "[5]; 60 min", "value": "0.05 % of Total Administered"}, {"measurement": "Recovery of Gentamicin, Heart", "setting": "[5]; 120 min", "value": "0.13 % of Total Administered"}, {"measurement": "Recovery of Gentamicin, Kidney", "setting": "[5]; 120 min", "value": "7.27 % of Total Administered"}, {"measurement": "Recovery of Gentamicin, Liver", "setting": "[5]; 120 min", "value": "2.00 % of Total Administered"}, {"measurement": "Recovery of Gentamicin, Spleen", "setting": "[5]; 120 min", "value": "0.04 % of Total Administered"}]}, {"compound": "OC[C@H]1O[C@@](CO)(O[C@H]2O[C@H](CO)[C@@H](O)[C@H](O)[C@H]2O)[C@@H](O)[C@@H]1O", "note": "[^14 C-sucrose, sucrose]", "values": [{"measurement": "initial amount of ^14 C-sucrose entrapped in the LMCs", "setting": "[6]", "value": 96.5, "unit": "%"}]}, {"compound": "COc1ccc2c(c1)c(CC(=O)O)c(C)n2C(=O)c1ccc(Cl)cc1", "note": "[indomethacin]", "values": [{"measurement": "degree of entrapment", "setting": "[1]", "value": 84, "unit": "%"}, {"measurement": "degree of entrapment (starting amount incorporated into the LMCs)", "setting": "[1]; corn oil/EPC, chloroform", "value": 84, "unit": "%"}]}]}
